Measurements from patent US20220265692A1, “ORALLY-ADMINISTERED PHARMACEUTICAL COMPOSITION FOR ERADICATING ANTIBIOTIC-RESISTANT HELICOBACTER PYLORI, COMPRISING COMPLEX OF NON-ABSORBABLE ANTIBIOTIC AND CLAY MINERAL” (priority 2019, published 2022).
Like-named read-outs stand apart in the source and are kept apart here.

Tests used:
[1] = tested on: Helicobacter pylori; settings: general statement; cited from earlier work
[2] = tested on: Helicobacter pylori clinical strains; assay: Evaluation of antibiotic resistant rate (in vitro MIC, 187 clinical strains); format: cell-based
Procedure: Complexes of antibiotics (amoxicillin, clarithromycin, metronidazole, levofloxacin, and tetracyclin) and smectite which have been actually used for Helicobacter eradication treatment in current clinical trials were prepared and in vitro MIC for non-absorbable antibiotic candidate groups gentamicin, netilmicin, tobramycin, amikacin) to be used as a novel therapeutic agent was measured, and MIC50 and MIC90 were confirmed. To this end, 187 cultured positive clinical strains obtained from 1,265 patient samples were used.

[3] = tested on: clarithromycin-resistant Helicobacter pylori; assay: Eradication activity in vitro on clarithromycin-resistant strain (disk); format: cell-based; settings: strain with MIC of CLR 48 mg/L, twice repeated tests
From the text: Clarithromycin-resistant Helicobacter pylori was applied (red) in a medium and then a sample was made in a disk form and placed on the medium to measure the eradication effect. At this time, it was meant that if red disappeared around the disk, there was the eradication effect.

Compound | resistant rate ([2]; based on MIC 1 μg/ml) [%] | other results
CC1(C)S[C@@H]2[C@H](NC(=O)[C@H](N)c3ccc(O)cc3)C(=O)N2[C@H]1C(=O)O [Amoxicilin, amoxicillin] |  | resistance [1]: less than 10%
NCC[C@H](O)C(=O)N[C@@H]1C[C@H](N)[C@@H](O[C@H]2O[C@H](CN)[C@@H](O)[C@H](O)[C@H]2O)[C@H](O)[C@H]1O[C@H]1O[C@H](CO)[C@@H](O)[C@H](N)[C@H]1O [amikacin] | 61.3 | 
CC[C@H]1OC(=O)[C@H](C)[C@@H](O[C@H]2C[C@@](C)(OC)[C@@H](O)[C@H](C)O2)[C@H](C)[C@@H](O[C@@H]2O[C@H](C)C[C@H](N(C)C)[C@H]2O)[C@](C)(OC)C[C@@H](C)C(=O)[C@H](C)[C@@H](O)[C@]1(C)O [clarithromycin] |  | eradication effect on clarithromycin-resistant H. pylori (clear zone around disk) [3]: the clear zone was not shown; resistant rate [2]: 29.8%
C[C@H]1COc2c(N3CCN(C)CC3)c(F)cc3c(=O)c(C(=O)O)cn1c23 [levofloxacin] |  | resistant rate [2]: 37.2%
CCN[C@@H]1C[C@H](N)[C@@H](O[C@H]2OC(CN)=CC[C@H]2N)[C@H](O)[C@H]1O[C@H]1OC[C@](C)(O)[C@H](NC)[C@H]1O [netilmicin] | 1.43 | 
NC[C@H]1O[C@H](O[C@H]2[C@H](O)[C@@H](O[C@H]3O[C@H](CO)[C@@H](O)[C@H](N)[C@H]3O)[C@H](N)C[C@@H]2N)[C@H](N)C[C@@H]1O [tobramycin] | 36.3 | 
gentamicin | 2.78 | 
